The values below come from ChEMBL document CHEMBL5244230, “Artemisinin-derived hybrids and their anticancer activity” (Eur J Med Chem, 2020).

What all share (type): functional, cell-based
The subject of one assay is HT-29. The assay is described as follows: Antiproliferative activity against human HT-29 cells assessed as reduction in cell viability measured for 72 hrs by MTT assay. The note with it: HT-29, 72 h. A general note: Tetrazolium dyes change colour on reduction, which living cells bring about.
The test system of a further assay is HeLa. Kind of assay: Antiproliferative activity against human HeLa cells assessed as reduction in cell viability measured for 72 hrs by MTT assay.
The test system of the next assay is A549. Kind of assay: Antiproliferative activity against human A549 cells assessed as reduction in cell viability measured for 72 hrs by MTT assay. To be noted: A549, 72 h.
For a further assay, the system named is NCI-H460. The assay is described as follows: Antiproliferative activity against human NCI-H460 cells assessed as reduction in cell viability measured for 72 hrs by MTT assay. The note with it: NCI-H460, 72 h.
A further assay deals with MDA-MB-231. Kind of assay: Antiproliferative activity against human MDA-MB-231 cells assessed as reduction in cell viability measured for 72 hrs by MTT assay. The note with it: MDA-MB-231, 72 h.

For orientation: IC50 means the point on the concentration scale where inhibition reaches its midpoint.

Each structure is given as a SMILES string.

For `COc1cccc(/C=C/C(=O)c2ccc(COCC(=O)N[C@H]3O[C@@H]4O[C@@]5(C)CC[C@H]6[C@H](C)CC[C@@H]([C@H]3C)[C@@]46OO5)cc2)c1`, the concentration for half-maximal inhibition (IC50) in the assay with HT-29, in the assay on HeLa, with A549, in the assay with NCI-H460 and in the assay with MDA-MB-231 was 90 nM in each case.
`C[C@H]1[C@H](NC(=O)COCc2ccc(C(=O)/C=C/c3ccc(Cl)cc3F)cc2)O[C@@H]2O[C@@]3(C)CC[C@H]4[C@H](C)CC[C@@H]1[C@@]24OO3`: the half-maximal inhibitory concentration (IC50) in the assay on HT-29, in the assay on HeLa, in the assay on A549, in the assay with NCI-H460 and with MDA-MB-231 was 100 nM throughout.
Take `C[C@H]1[C@H](NC(=O)COCc2ccc(C(=O)/C=C/c3cccc(Cl)c3Cl)cc2)O[C@@H]2O[C@@]3(C)CC[C@H]4[C@H](C)CC[C@@H]1[C@@]24OO3`: the IC50 in the assay with HT-29, with HeLa, with A549, in the assay with NCI-H460 and in the assay on MDA-MB-231 was 100 nM each time.
Regarding `C[C@H]1[C@@H](NC(=O)COCc2ccc(C(=O)/C=C/c3c(Cl)cccc3Cl)cc2)O[C@@H]2O[C@@]3(C)CC[C@H]4[C@H](C)CC[C@@H]1[C@@]24OO3`, the IC50 in the assay with HT-29, in the assay on HeLa, with A549, with NCI-H460 and in the assay with MDA-MB-231 was 90 nM each time.
For the compound `COc1ccc(OC)c(/C=C/C(=O)c2ccc(COCC(=O)N[C@@H]3O[C@@H]4O[C@@]5(C)CC[C@H]6[C@H](C)CC[C@@H]([C@H]3C)[C@@]46OO5)cc2)c1`, the 50% inhibitory concentration (IC50) in the assay on HT-29, in the assay with HeLa, in the assay with A549, with NCI-H460 and with MDA-MB-231 was 100 nM each time.
As to `C[C@H]1[C@H](NC(=O)COCc2ccc(C(=O)/C=C/c3ccccc3F)cc2)O[C@@H]2O[C@@]3(C)CC[C@H]4[C@H](C)CC[C@@H]1[C@@]24OO3`, the half-inhibitory concentration (IC50) in the assay with HT-29, in the assay on HeLa, with A549, with NCI-H460 and with MDA-MB-231 was 100 nM each time.
`C[C@H]1[C@H](NC(=O)COCc2ccc(C(=O)/C=C/c3ccc(OC(F)(F)F)cc3)cc2)O[C@@H]2O[C@@]3(C)CC[C@H]4[C@H](C)CC[C@@H]1[C@@]24OO3`: the concentration for half-maximal inhibition (IC50) in the assay with HT-29, in the assay on HeLa, in the assay with A549, in the assay on NCI-H460 and with MDA-MB-231 was 100 nM in each case.
For the compound `C[C@H]1[C@@H](NC(=O)COCc2ccc(C(=O)/C=C/c3ccc(Cl)cc3F)cc2)O[C@@H]2O[C@@]3(C)CC[C@H]4[C@H](C)CC[C@@H]1[C@@]24OO3`, the concentration for half-maximal inhibition (IC50) with HT-29, in the assay with HeLa, in the assay with A549, in the assay on NCI-H460 and with MDA-MB-231 was 90 nM each time.
Take `C[C@H]1[C@@H](NC(=O)COCc2ccc(C(=O)/C=C/c3ccc(F)c(F)c3)cc2)O[C@@H]2O[C@@]3(C)CC[C@H]4[C@H](C)CC[C@@H]1[C@@]24OO3`: the 50% inhibitory concentration (IC50) with HT-29, in the assay on HeLa, in the assay on A549, in the assay with NCI-H460 and in the assay on MDA-MB-231 was 90 nM throughout.
As for `C[C@H]1[C@@H](NC(=O)COCc2ccc(C(=O)/C=C/c3cccc(Cl)c3Cl)cc2)O[C@@H]2O[C@@]3(C)CC[C@H]4[C@H](C)CC[C@@H]1[C@@]24OO3`, the IC50 with HT-29, in the assay on HeLa, with A549, in the assay on NCI-H460 and in the assay with MDA-MB-231 was 90 nM in each case.
`C[C@H]1[C@H](NC(=O)COCc2ccc(C(=O)/C=C/c3ccc(F)c(F)c3)cc2)O[C@@H]2O[C@@]3(C)CC[C@H]4[C@H](C)CC[C@@H]1[C@@]24OO3`: the concentration for half-maximal inhibition (IC50) in the assay on HT-29, in the assay with HeLa, in the assay on A549, with NCI-H460 and with MDA-MB-231 was 100 nM each time.
Consider `C[C@H]1[C@H](NC(=O)COCc2ccc(C(=O)/C=C/c3ccc(Cl)cc3)cc2)O[C@@H]2O[C@@]3(C)CC[C@H]4[C@H](C)CC[C@@H]1[C@@]24OO3`, for which the IC50 with HT-29, with HeLa, with A549, in the assay on NCI-H460 and in the assay on MDA-MB-231 was 100 nM in each case.
`COc1ccc(/C=C/C(=O)c2ccc(COCC(=O)N[C@@H]3O[C@@H]4O[C@@]5(C)CC[C@H]6[C@H](C)CC[C@@H]([C@H]3C)[C@@]46OO5)cc2)c(OC)c1OC`: the IC50 in the assay on HT-29, in the assay with HeLa, in the assay on A549, in the assay on NCI-H460 and with MDA-MB-231 was 100 nM throughout.
As to `C[C@H]1[C@@H](NC(=O)COCc2ccc(C(=O)/C=C/c3ccc(F)cc3)cc2)O[C@@H]2O[C@@]3(C)CC[C@H]4[C@H](C)CC[C@@H]1[C@@]24OO3`, the IC50 in the assay on HT-29, with HeLa, in the assay with A549, with NCI-H460 and in the assay with MDA-MB-231 was 90 nM throughout.
`C[C@H]1[C@H](NC(=O)COCc2ccc(C(=O)/C=C/c3ccc(F)cc3F)cc2)O[C@@H]2O[C@@]3(C)CC[C@H]4[C@H](C)CC[C@@H]1[C@@]24OO3`: the half-maximal inhibitory concentration (IC50) in the assay on HT-29, in the assay with HeLa, with A549, in the assay with NCI-H460 and with MDA-MB-231 was 100 nM throughout.
For `C[C@H]1[C@@H](NC(=O)COCc2ccc(C(=O)/C=C/c3ccc(F)cc3F)cc2)O[C@@H]2O[C@@]3(C)CC[C@H]4[C@H](C)CC[C@@H]1[C@@]24OO3`, the concentration for half-maximal inhibition (IC50) with HT-29, with HeLa, in the assay with A549, with NCI-H460 and in the assay on MDA-MB-231 was 90 nM throughout.
`C[C@H]1[C@@H](NC(=O)COCc2ccc(C(=O)/C=C/c3cccc(OC(F)(F)F)c3)cc2)O[C@@H]2O[C@@]3(C)CC[C@H]4[C@H](C)CC[C@@H]1[C@@]24OO3`: the IC50 in the assay with HT-29, with HeLa, in the assay with A549, with NCI-H460 and in the assay with MDA-MB-231 was 90 nM throughout.
Consider `COc1ccc(OC)c(/C=C/C(=O)c2ccc(COCC(=O)N[C@H]3O[C@@H]4O[C@@]5(C)CC[C@H]6[C@H](C)CC[C@@H]([C@H]3C)[C@@]46OO5)cc2)c1`, for which the 50% inhibitory concentration (IC50) in the assay on HT-29, in the assay on HeLa, with A549, with NCI-H460 and in the assay on MDA-MB-231 was 90 nM throughout.
For `C[C@H]1[C@H](NC(=O)COCc2ccc(C(=O)/C=C/c3cccc(OC(F)(F)F)c3)cc2)O[C@@H]2O[C@@]3(C)CC[C@H]4[C@H](C)CC[C@@H]1[C@@]24OO3`, the 50% inhibitory concentration (IC50) in the assay with HT-29, in the assay on HeLa, in the assay on A549, with NCI-H460 and in the assay on MDA-MB-231 was 100 nM in each case.
Take `C[C@H]1[C@@H](NC(=O)COCc2ccc(C(=O)/C=C/c3ccccc3F)cc2)O[C@@H]2O[C@@]3(C)CC[C@H]4[C@H](C)CC[C@@H]1[C@@]24OO3`: the half-inhibitory concentration (IC50) in the assay on HT-29, in the assay with HeLa, in the assay on A549, in the assay on NCI-H460 and with MDA-MB-231 was 90 nM in each case.
For the compound `COc1ccc(/C=C/C(=O)c2ccc(COCC(=O)N[C@H]3O[C@@H]4O[C@@]5(C)CC[C@H]6[C@H](C)CC[C@@H]([C@H]3C)[C@@]46OO5)cc2)c(OC)c1OC`, the 50% inhibitory concentration (IC50) in the assay on HT-29, with HeLa, with A549, with NCI-H460 and in the assay with MDA-MB-231 was 90 nM throughout.
On to `C[C@H]1[C@@H](NC(=O)COCc2ccc(C(=O)/C=C/c3ccc(Cl)cc3)cc2)O[C@@H]2O[C@@]3(C)CC[C@H]4[C@H](C)CC[C@@H]1[C@@]24OO3`, for which the half-inhibitory concentration (IC50) with HT-29, with HeLa, with A549, in the assay with NCI-H460 and in the assay with MDA-MB-231 was 90 nM each time.
`C[C@H]1[C@H](NC(=O)COCc2ccc(C(=O)/C=C/c3ccc(S(C)(=O)=O)cc3)cc2)O[C@@H]2O[C@@]3(C)CC[C@H]4[C@H](C)CC[C@@H]1[C@@]24OO3`: the IC50 with HT-29, with HeLa, in the assay with A549, with NCI-H460 and in the assay with MDA-MB-231 was 100 nM each time.
Turning to `C[C@H]1[C@H](NC(=O)COCc2ccc(C(=O)/C=C/c3ccc(F)cc3)cc2)O[C@@H]2O[C@@]3(C)CC[C@H]4[C@H](C)CC[C@@H]1[C@@]24OO3`, the concentration for half-maximal inhibition (IC50) with HT-29, in the assay on HeLa, in the assay on A549, with NCI-H460 and in the assay with MDA-MB-231 was 100 nM in each case.
With `C[C@H]1[C@@H](NC(=O)COCc2ccc(C(=O)/C=C/c3ccc(S(C)(=O)=O)cc3)cc2)O[C@@H]2O[C@@]3(C)CC[C@H]4[C@H](C)CC[C@@H]1[C@@]24OO3`, the IC50 in the assay with HT-29, in the assay with HeLa, in the assay on A549, with NCI-H460 and with MDA-MB-231 was 90 nM throughout.
On to `C[C@H]1[C@@H](NC(=O)COCc2ccc(C(=O)/C=C/c3ccc(OC(F)(F)F)cc3)cc2)O[C@@H]2O[C@@]3(C)CC[C@H]4[C@H](C)CC[C@@H]1[C@@]24OO3`, for which the IC50 with HT-29, with HeLa, with A549, with NCI-H460 and in the assay with MDA-MB-231 was 90 nM in each case.
